Laboratory results as given in US20240415918A1, “Polypeptide and its use as a CCK receptor agonist/antagonist” (Centre for Regenerative Medicine & Health, Hong Kong …, priority 2021, published 2024).

Tests used:
[1] = biological target: T1, CCK-B receptors (CHO-CCK) (Homo sapiens, UniProt P32239); experiment: Calcium flux (Fluo-8) agonist test on CHO-CCK model cells; type: cell-based; details: for EC50: CHO-CCK cells, compound alone, 100% = 20 nM CCK8; for Agonistic Activity (%) at 10 μM: compound at 10 μM, percentage of signal of 20 nM CCK8 alone
T1 construct: expressed in transfected cells; host or cells: CHO (CHO-CCK model cells)
T1 sequence (P32239 1-447): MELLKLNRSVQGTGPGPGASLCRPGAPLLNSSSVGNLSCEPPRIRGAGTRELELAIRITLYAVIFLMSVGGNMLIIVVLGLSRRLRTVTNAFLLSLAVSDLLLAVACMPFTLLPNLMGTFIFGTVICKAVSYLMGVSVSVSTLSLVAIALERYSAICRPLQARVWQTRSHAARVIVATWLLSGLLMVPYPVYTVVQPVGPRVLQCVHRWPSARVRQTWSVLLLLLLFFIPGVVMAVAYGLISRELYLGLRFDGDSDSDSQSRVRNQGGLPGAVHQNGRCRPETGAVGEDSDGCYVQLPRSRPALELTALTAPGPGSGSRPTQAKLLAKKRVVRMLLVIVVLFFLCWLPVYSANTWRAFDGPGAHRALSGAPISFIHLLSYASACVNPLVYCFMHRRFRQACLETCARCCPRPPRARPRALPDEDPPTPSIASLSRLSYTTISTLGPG
Outline: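 Agonist-mode Fluo-8 calcium flux read on CHO-CCK cells after dye loading 30 min at 37 °C plus 30 min at room temperature.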

[2] = biological target: T1, CCK-B receptors (CHO-CCK); experiment: Calcium flux (Fluo-8) antagonist test on CHO-CCK model cells in presence of CCK8; type: cell-based
Description: The compound was formulated to a 10 mM mother liquor with DMSO, and then diluted into a series of 9 concentrations with a 3-fold gradient to form a 1000× stock solution. […] Prepare 1×Fluo-8 analysis buffer: mix 9 mL of HHBS, 1 mL of 10× Pluronic F127 Plus and 20 μL of Fluo-8 thoroughly for later use. • 3. Add Fluo-8 dye working solution to the cell plate, 100 μL/well. First incubate in a 37° C. incubator for 30 min, and then take it out and incubate at room temperature in the dark for 30 min. • 4. In the process of incubating cells, the compounds to be detected were prepared with HHBS. • 5. […] The agonism/antagonism EC50 of the compound can be obtained by plotting the fitting curve with the agonism/antagonism percentage as Y-axis and the concentration of the compound as X-axis.

[3] = compound together with 10 nM CCK8
[4] = compound together with 10 nM CCK8, bound in μM

Compound | EC50 [1] [nM] | Agonistic Activity (%) at 10 μM [1] [%] | EC50 [2, 3] [µM] | EC50 [2, 4] [µM]
CSCC[C@H](NC(=O)[C@H](N)Cc1c[nH]c2ccccc12)C(=O)N[C@@H](CC(=O)O)C(=O)N[C@@H](Cc1ccc(C)cc1)C(N)=O [HT-30, D-Trp-Met-Asp-Phe(4 Me)-NH2] | 93.2 | 88.74 | 0.683 | –
CSCC[C@H](NC(=O)[C@H](N)Cc1c[nH]c2ccccc12)C(=O)N[C@@H](CC(=O)O)C(=O)N[C@@H](Cc1ccc(C#N)cc1)C(N)=O [HT-32, D-Trp-Met-Asp-Phe(4-CN)-NH2] | 1130 | 57.37 | 2.66 | –
CSCC[C@H](NC(=O)[C@H](N)Cc1c[nH]c2ccccc12)C(=O)N[C@@H](CC(=O)O)C(=O)N[C@@H](Cc1ccc([N+](=O)[O-])cc1)C(N)=O [HT-33, D-Trp-Met-Asp-Phe(4-NO2)-NH2] | 241 | 71.20 | 1.2 | –
CSCC[C@H](NC(=O)[C@H](N)Cc1c[nH]c2ccccc12)C(=O)N[C@@H](CC(=O)O)C(=O)N[C@@H](Cc1ccc(Br)cc1)C(N)=O [HT-34, D-Trp-Met-Asp-Phe(4-Br)-NH2] | 369 | 98.24 | 2.25 | –
CSCC[C@H](NC(=O)[C@H](N)Cc1c[nH]c2ccccc12)C(=O)N[C@@H](CC(=O)O)C(=O)N[C@@H](Cc1cc(Cl)cc(Cl)c1)C(N)=O [HT-38, D-Trp-Met-Asp-Phe(3,5-DiCl)-NH2] | 49.3 | 122.74 | 0.0997 | –
CSCC[C@H](NC(=O)[C@H](N)Cc1c[nH]c2ccccc12)C(=O)N[C@@H](CC(=O)O)C(=O)N[C@@H](Cc1cc(F)c(F)c(F)c1)C(N)=O [HT-40, D-Trp-Met-Asp-Phe(3,4,5-TriF)-NH2] | 78 | 98.25 | 0.244 | –
C[S+]([O-])CC[C@H](NC(=O)[C@H](N)Cc1c[nH]c2ccccc12)C(=O)N[C@@H](CC(=O)O)C(=O)N[C@@H](Cc1ccccc1F)C(N)=O (stereo partly drawn) [HT-42, D-Trp-Met(O)-Asp-Phe(2-F)-NH2] | – | 17.97 | 8.41 | –
C[S+]([O-])CC[C@H](NC(=O)[C@H](N)Cc1c[nH]c2ccccc12)C(=O)N[C@@H](CC(=O)O)C(=O)N[C@@H](Cc1cccc(Cl)c1)C(N)=O (stereo partly drawn) [HT-43, D-Trp-Met(O)-Asp-Phe(3-Cl)-NH2] | 3020 | 62.14 | 8.97 | –
C[S+]([O-])CC[C@H](NC(=O)[C@H](N)Cc1c[nH]c2ccccc12)C(=O)N[C@@H](CC(=O)O)C(=O)N[C@@H](Cc1cccc(I)c1)C(N)=O (stereo partly drawn) [HT-45, D-Trp-Met(O)-Asp-Phe(3-I)-NH2] | 4380 | 58.98 | 3.37 | –
C[S+]([O-])CC[C@H](NC(=O)[C@H](N)Cc1c[nH]c2ccccc12)C(=O)N[C@@H](CC(=O)O)C(=O)N[C@@H](Cc1cccc(Br)c1)C(N)=O (stereo partly drawn) [HT-46, D-Trp-Met(O)-Asp-Phe(3-Br)-NH2] | 3800 | 53.69 | 6.24 | –
C[S+]([O-])CC[C@H](NC(=O)[C@H](N)Cc1c[nH]c2ccccc12)C(=O)N[C@@H](CC(=O)O)C(=O)N[C@@H](Cc1ccc(F)cc1)C(N)=O (stereo partly drawn) [HT-53, D-Trp-Met(O)-Asp-Phe(4-F)-NH2] | – | 30.00 | 8.88 | –
C[S+]([O-])CC[C@H](NC(=O)[C@H](N)Cc1c[nH]c2ccccc12)C(=O)N[C@@H](CC(=O)O)C(=O)N[C@@H](Cc1cc(Cl)cc(Cl)c1)C(N)=O (stereo partly drawn) [HT-55, D-Trp-Met(O)-Asp-Phe(3,5-DiCl)-NH2] | 1650 | 62.28 | 1.79 | –
CS(=O)(=O)CC[C@H](NC(=O)[C@H](N)Cc1c[nH]c2ccccc12)C(=O)N[C@@H](CC(=O)O)C(=O)N[C@@H](Cc1ccccc1F)C(N)=O [HT-59, D-Trp-Met(O2)-Asp-Phe(2-F)-NH2] | – | 39.73 | 9.22 | –
CS(=O)(=O)CC[C@H](NC(=O)[C@H](N)Cc1c[nH]c2ccccc12)C(=O)N[C@@H](CC(=O)O)C(=O)N[C@@H](Cc1cccc(Cl)c1)C(N)=O [HT-60, D-Trp-Met(O2)-Asp-Phe(3-Cl)-NH2] | 9240 | 50.72 | 6.61 | –
CS(=O)(=O)CC[C@H](NC(=O)[C@H](N)Cc1c[nH]c2ccccc12)C(=O)N[C@@H](CC(=O)O)C(=O)N[C@@H](Cc1cccc(Br)c1)C(N)=O [HT-63, D-Trp-Met(O2)-Asp-Phe(3-Br)-NH2] | 6050 | 48.46 | 7.5 | –
CS(=O)(=O)CC[C@H](NC(=O)[C@H](N)Cc1c[nH]c2ccccc12)C(=O)N[C@@H](CC(=O)O)C(=O)N[C@@H](Cc1ccc(N=[N+]=[N-])cc1)C(N)=O [HT-65, D-Trp-Met(O2)-Asp-Phe(4-N3)-NH2] | – | 8.35 | – | > 10
CS(=O)(=O)CC[C@H](NC(=O)[C@H](N)Cc1c[nH]c2ccccc12)C(=O)N[C@@H](CC(=O)O)C(=O)N[C@@H](Cc1cc(Cl)cc(Cl)c1)C(N)=O [HT-72, D-Trp-Met(O2)-Asp-Phe(3,5-DiCl)-NH2] | 1510 | 82.71 | 2.62 | –
CS(=O)(=O)CC[C@H](NC(=O)[C@H](N)Cc1c[nH]c2ccccc12)C(=O)N[C@@H](CC(=O)O)C(=O)N[C@@H](Cc1cc(F)cc(F)c1)C(N)=O [HT-73, D-Trp-Met(O2)-Asp-Phe(3,5-DIF)-NH2] | 12600 | 55.41 | 8.82 | –
CS(=O)(=O)CC[C@H](NC(=O)[C@H](N)Cc1c[nH]c2ccccc12)C(=O)N[C@@H](CC(=O)O)C(=O)N[C@@H](Cc1cc(F)c(F)c(F)c1)C(N)=O [HT-74, D-Trp-Met(O2)-Asp-Phe(3,4,5-TriF)-NH2] | 11000 | 55.05 | 8.42 | –

Second part, the compound after the results:

EC50 [1] [nM] | Agonistic Activity (%) at 10 μM [1] [%] | EC50 [2, 3] [µM] | EC50 [2, 4] [µM] | Compound
155 | 79.08 | 1.34 | – | CSCC[C@H](NC(=O)[C@H](N)Cc1c[nH]c2ccccc12)C(=O)N[C@@H](CC(=O)O)C(=O)N[C@@H](Cc1cccc(F)c1)C(N)=O [HT-27, D-Trp-Met-Asp-Phe(3-F)-NH2]
154 | 49.93 | 0.149 | – | CSCC[C@H](NC(=O)[C@H](N)Cc1c[nH]c2ccccc12)C(=O)N[C@@H](CC(=O)O)C(=O)N[C@@H](Cc1cccc(I)c1)C(N)=O [HT-28, D-Trp-Met-Asp-Phe(3-I)-NH2]
8.1 | 85.68 | 0.106 | – | CSCC[C@H](NC(=O)[C@H](N)Cc1c[nH]c2ccccc12)C(=O)N[C@@H](CC(=O)O)C(=O)N[C@@H](Cc1cccc(Br)c1)C(N)=O [HT-29, D-Trp-Met-Asp-Phe(3-Br)-NH2]
180 | 109.16 | 0.755 | – | CSCC[C@H](NC(=O)[C@H](N)Cc1c[nH]c2ccccc12)C(=O)N[C@@H](CC(=O)O)C(=O)N[C@@H](Cc1ccc(Cl)cc1)C(N)=O [HT-35, D-Trp-Met-Asp-Phe(4-CII)-NH2]
88.8 | −3.55 | 0.876 | – | CSCC[C@H](NC(=O)[C@H](N)Cc1c[nH]c2ccccc12)C(=O)N[C@@H](CC(=O)O)C(=O)N[C@@H](Cc1ccc(F)cc1)C(N)=O [HT-36, D-Trp-Met-Asp-Phe(4-F)-NH2]
864 | 52.04 | 1.22 | – | CSCC[C@H](NC(=O)[C@H](N)Cc1c[nH]c2ccccc12)C(=O)N[C@@H](CC(=O)O)C(=O)N[C@@H](Cc1ccc(I)cc1)C(N)=O [HT-37, D-Trp-Met-Asp-Phe(4-I)-NH2]
44.2 | 119.04 | 0.631 | – | CSCC[C@H](NC(=O)[C@H](N)Cc1c[nH]c2ccccc12)C(=O)N[C@@H](CC(=O)O)C(=O)N[C@@H](Cc1cc(F)cc(F)c1)C(N)=O [HT-39, D-Trp-Met-Asp-Phe(3,5-DiF)-NH2]
– | 34.63 | – | > 10 | C[S+]([O-])CC[C@H](NC(=O)[C@H](N)Cc1c[nH]c2ccccc12)C(=O)N[C@@H](CC(=O)O)C(=O)N[C@@H](Cc1cccc(F)c1)C(N)=O (stereo partly drawn) [HT-44, D-Trp-Met(O)-Asp-Phe(3-F)-NH2]
– | 36.66 | – | > 10 | CS(=O)(=O)CC[C@H](NC(=O)[C@H](N)Cc1c[nH]c2ccccc12)C(=O)N[C@@H](CC(=O)O)C(=O)N[C@@H](Cc1cccc(F)c1)C(N)=O [HT-61, D-Trp-Met(O2)-Asp-Phe(3-F)-NH2]
– | 20.83 | – | ~10 | COC(=O)C[C@H](NC(=O)[C@H](CCSC)NC(=O)[C@H](N)Cc1c[nH]c2ccccc12)C(=O)N[C@@H](Cc1cccc(F)c1)C(N)=O [HT-78, D-Trp-Met-Asp(Ome)-Phe(3-F)-NH2]
